Where two headings read alike, the source gives them in different places.
Experiments:
[1] = test system: Cyprid larvae from Balanus improvisus
Procedure: Cyprid larvae from Balanus improvisus were transferred to Petri dishes containing seawater from the Swedish west coast and medetomidine in various concentrations (0.1 nM, 1 nM, 10 nM, 100 nM and 1 μM). In addition, for control purposes, cyprid larvae were transferred to a Petri dish containing seawater only. After 11 days the cyprids were counted and classified as either 1) settled (established) on the surface of the Petri dish, 2) swimming, i.e. living, not established, or 3) dead. The results in the table are expressed in percentage of the total number of organisms in each group (=n).
This example corresponds to Example 1 with the exception that medetomidine was replaced by clonidine in the concentrations defined in Table 2 below.

[2] = test system: cyprid larvae; details: for Dead / Settled / Swimming: cleaned, reading after 7 days
Procedure: Petri dishes of hydrophilic polystyrene were filled with a solution of medetomidine in varying concentrations (0 ng/ml 10 ng/ml, 1 μg/ml and 10 μg/ml). […] After a 24 hour incubation period in room temperature the dishes were cleaned thoroughly with seawater. The dishes were then incubated with cyprid larvae in amounts of approximately 20 larvae/dish. Readings were taken under microscope after 7 days, and the larvae were classified as either settled, free-swimming or dead.

[3] = test system: cyprid larvae; details: cleaned, as Example 3
Procedure: Petri dishes of hydrophilic polystyrene were filled with a solution of medetomidine in varying concentrations (0 ng/ml 10 ng/ml, 1 μg/ml and 10 μg/ml). Like in Example 1, one Petri dish with no medetomidine was used as control. After a 24 hour incubation period in room temperature the dishes were cleaned thoroughly with seawater. The dishes were then incubated with cyprid larvae in amounts of approximately 20 larvae/dish. Readings were taken under microscope after 7 days, and the larvae were classified as either settled, free-swimming or dead.
Example 3 was repeated, with the difference that Petri dishes of hydrophobic polystyrene were used instead of hydrophilic dishes.

[4] = test system: acorn barnacles (Balanus improvisus); details: for Number of Balanus improvisus/10 cm^2: acrylate-based paint with 0.02% by weight medetomidine
Procedure: Medetomidine was added to an acrylate-based paint formula to a concentration of 0.02% by weight (or 170 μg/ml). The paint was then applied on 10 test surfaces dimensioned 10×10 cm^2. The surfaces were allowed to dry at room temperature and were then mounted on racks, which were placed at a depth of about one meter in a bay in the sea offshore from Strömstad, Sweden, and were allowed to remain there during August and September of 1999. After 2, 4 and 8 weeks, respectively, the test surfaces were removed from the sea and the number of acorn barnacles (Balanus improvisus) were counted.

[5] = test system: tube building polychaetes (Hydroides elegans); details: for Dead / Settled / Swimming: incubated two days
Procedure: The polychaete larvae were incubated for two days in Petri dishes containing sea water and were then classified as either settled, free swimming or dead, like in Example 1. The water originated from the coast outside Sydney, Australia, and the experiment was carried out in May 1999.

[6] = medetomidine 0.1 nM, after 11 days, % of total organisms
[7] = medetomidine 1 nM, after 11 days, % of total organisms
[8] = medetomidine 10 nM, after 11 days, % of total organisms
[9] = medetomidine 100 nM, after 11 days, % of total organisms
[10] = medetomidine 1000 nM, after 11 days, % of total organisms
[11] = hydrophilic polystyrene dish pre-incubated 24 h with medetomidine 1 ng/ml
[12] = hydrophilic polystyrene dish pre-incubated 24 h with medetomidine 10 ng/ml
[13] = hydrophilic polystyrene dish pre-incubated 24 h with medetomidine 1000 ng/ml
[14] = hydrophilic polystyrene dish pre-incubated 24 h with medetomidine 10000 ng/ml
[15] = hydrophobic polystyrene dish pre-incubated with medetomidine 1 ng/ml
[16] = hydrophobic polystyrene dish pre-incubated with medetomidine 10 ng/ml
[17] = hydrophobic polystyrene dish pre-incubated with medetomidine 1000 ng/ml
[18] = hydrophobic polystyrene dish pre-incubated with medetomidine 10000 ng/ml
[19] = clonidine 0.027 ng/ml, as Example 1
[20] = clonidine 0.27 ng/ml, as Example 1
[21] = clonidine 2.7 ng/ml, as Example 1
[22] = clonidine 27 ng/ml, as Example 1
[23] = clonidine 270 ng/ml, as Example 1

`Cc1cccc(C(C)c2cnc[nH]2)c1C` (racemic) [medetomidine, (±)-4-[1-(2,3-dimethylphenyl)-ethyl]-1H-imidazole-mono-hydrogen chloride] showed a Dead [1, 6] of 0%, a Settled [1, 6] of 52% and a Swimming [1, 6] of 48%. The Dead [1, 7] was 0%, the Settled [1, 7] was 1.5% and the Swimming [1, 7] was 98%. It also gave a Dead [1, 8] of 0%, a Settled [1, 8] of 0% and a Swimming [1, 8] of 100%. The Dead [1, 9] was 0%, the Settled [1, 9] was 0% and the Swimming [1, 9] was 100%. For the same compound, the Dead [1, 10] was 0%, the Settled [1, 10] was 0% and the Swimming [1, 10] was 100%. The “number of established larvae” value ([1]; upon increased concentration of medetomidine (0.1 nM to 1 μM)) was “decreased upon increased concentration”, the “number of dead cyprids” value ([1]; upon increased contents of medetomidine (0.1 nM to 1 μM)) was “did not increase” and the “number of settled acorn barnacles” value ([2]; also at very low medetomidine incubation concentrations) was “significant reduction”. For the same compound, the Dead [2, 11] was 0%, the Settled [2, 11] was 6.2% and the Swimming [2, 11] was 93.8%. The Dead [2, 12] was 0%, the Settled [2, 12] was 0% and the Swimming [2, 12] was 100%. For the same compound, the Dead [2, 13] was 0%, the Settled [2, 13] was 0% and the Swimming [2, 13] was 100%. It also gave a Dead [2, 14] of 0%, a Settled [2, 14] of 0% and a Swimming [2, 14] of 100%. For the same compound, the Dead [3, 15] was 0%, the Settled [3, 15] was 63.1% and the Swimming [3, 15] was 36.9%. The Dead [3, 16] was 2.1%, the Settled [3, 16] was 33.3% and the Swimming [3, 16] was 65%. It also gave a Dead [3, 17] of 0%, a Settled [3, 17] of 0% and a Swimming [3, 17] of 100%. It also gave a Dead [3, 18] of 2.1%, a Settled [3, 18] of 0% and a Swimming [3, 18] of 97.9%. For the same compound, the “Number of Balanus improvisus/10 cm^2” value ([4]; 2 weeks in the sea) was 4.63 ± 1.04 /10 cm^2, the “Number of Balanus improvisus/10 cm^2” value ([4]; 4 weeks in the sea) was 5.6 ± 1.4 /10 cm^2 and the “Number of Balanus improvisus/10 cm^2” value ([4]; 8 weeks in the sea) was 148.1 ± 16.24 /10 cm^2. The “number of acorn barnacles on the test surfaces compared with the control surfaces” value ([4]; paint with 0.02% by weight medetomidine, 2, 4 and 8 weeks) was “significant reduction”, the “effect on settling of polychaete larvae” value ([5]; concentration span of from 0.1 nM to 100 μM) was “significant inhibiting effect” and the Dead ([5]; medetomidine 0.1 nM) was 2.3%. It also gave a Settled ([5]; medetomidine 0.1 nM) of 9.3%, a Swimming ([5]; medetomidine 0.1 nM) of 88.4% and a Dead ([5]; medetomidine 1 nM) of 5.4%. It also gave a Settled ([5]; medetomidine 1 nM) of 5.4%, a Swimming ([5]; medetomidine 1 nM) of 89.2% and a Dead ([5]; medetomidine 10 nM) of 4.4%. The Settled ([5]; medetomidine 10 nM) was 0%, the Swimming ([5]; medetomidine 10 nM) was 95.6% and the Dead ([5]; medetomidine 100 nM) was 20%. It also gave a Settled ([5]; medetomidine 100 nM) of 0%, a Swimming ([5]; medetomidine 100 nM) of 80% and a Dead ([5]; medetomidine 1000 nM) of 45.7%. For the same compound, the Settled ([5]; medetomidine 1000 nM) was 0%, the Swimming ([5]; medetomidine 1000 nM) was 54.3% and the Dead ([5]; medetomidine 100 000 nM) was 100%. The Settled ([5]; medetomidine 100 000 nM) was 0%, the Swimming ([5]; medetomidine 100 000 nM) was 0% and the “toxic effects on polychaete larvae” value ([5]; span from 100 nM to 100 μM) was “toxic effects appear”.
`Clc1cccc(Cl)c1NC1=NCCN1` [clonidine, 2-(2,6-di-chloro-anilino)-2-imidazoline] showed a Dead ([1]; Balanus improvisus, in vivo, 11 days, 0.027 ng/ml) of 0%, a Dead ([1]; Balanus improvisus, in vivo, 11 days, 0.27 ng/ml) of 0% and a Dead ([1]; Balanus improvisus, in vivo, 11 days, 2.7 ng/ml) of 1.7%. For the same compound, the Dead ([1]; Balanus improvisus, in vivo, 11 days, 27 ng/ml) was 1.5%, the Dead ([1]; Balanus improvisus, in vivo, 11 days, 270 ng/ml) was 8.3% and the Settled [1, 19] was 36.7%. It also gave a Swimming [1, 19] of 65.7%, a Settled [1, 20] of 22.3% and a Swimming [1, 20] of 77.7%. For the same compound, the Settled [1, 21] was 1.8%, the Swimming [1, 21] was 96.5% and the Settled [1, 22] was 0%. It also gave a Swimming [1, 22] of 98.5%, a Settled [1, 23] of 0% and a Swimming [1, 23] of 91.7%.

Reference: patent publication US6762227B1, “Inhibition of marine biofouling of surfaces” (I-Tech AB, priority 1999, dated 2004)
